{
  "source": "patent US9944583B2",
  "about": "“Methods for ameliorating and preventing central nervous system inflammation” (THE REGENTS OF THE UNIVERSITY OF CALIFORNIA, priority 2007, dated 2018)",
  "key": {"[1]": {"system": "PV-interneurons in mouse prefrontal cortex", "assay": "two-day ketamine treatment of mice: oxidized DHE, parvalbumin and GAD67 in prefrontal cortex", "type": "in vivo", "experimental": "Animals and treatments. […] Male C57BL6 mice were obtained from Jackson Labs, Bar Harbor, Me., at 8-12 weeks and housed in our facility until 15 weeks when they were used for experiments. Ketamine (30 mg/kg) was applied intraperitoneally (IP) on two consecutive days at around 4 pm. DHE was applied 30 min after the last ketamine injection as described (19, 20). Briefly, two serial i.p. injections of freshly prepared dihydroethidium (27 mg/kg) are given at 30 minute intervals. Eighteen hours later, mice are anesthetized with inhaled halothane, and perfused intracardially with cold saline followed by 4% paraformaldehyde in PBS. The Nox inhibitor, apocynin (5 mg/kg/day) was given in the drinking water for a total of seven days, with an assumed intake of […] H2O/mouse/day, and ketamine was applied on the last two days. […] All animal studies were approved by the Animal Care Program at the University of California, San Diego, and are in accordance the PHS Guide for the Care and Use of Laboratory Animals, USDA Regulations, and the AVMA Panel on Euthanasia.\nImmunohistochemistry: Brains were frontally sliced in a vibratome into 50 μm coronal sections encompassing the prefrontal cortex region (from Bregma 2.0 to 1.3). Sequential slices were processed for floating-section double immunohistochemistry for the detection of parvalbumin and GAD67. Antigen retrieval was performed by incubation of the slices in 1% sodium borohydride for 15 min as described (see reference 34, below), followed by washing in PBS and incubation in 10% normal goat serum in PBS for 16 h at 4° C. Primary antibodies (Calbindin: 1:5000: Calretinin: 1:2000; Parvalbumin: 1:3000, all rabbit polyclonals from Swant, Bellinzona, Switzerland. GAD67: 1:1000, from Chemicon-Millipore, Temecula, Calif.) were diluted in 2% normal goat serum in PBS and applied to the slices for 18 h at 4° C., after which slices were washed in PBS and incubated in a 1:1000 dilution of ALEXAFLUOR™ (Molecular Probes, Invitrogen, Carlsbad, Calif.) conjugated goat anti-rabbit (568) or goat anti-mouse (488) antibodies for 1 hr at room temperature (rt). Slices were washed in PBS and mounted sequentially in glass slides using […]™ (Vector Laboratories, Burlingame, Calif.), covered with a coverslip and allowed to dry for at least 24 h before confocal imaging.\nSix slices were analyzed per animal.\nAnalysis of superoxide and/or hydrogen peroxide production by confocal imaging of in vivo dihydroethidium (DHE) oxidation. Mice will be injected intraperitoneally (i.p.) with dihydroethidium."}, "NADPH oxidase (Nox)": {"system": "NADPH oxidase (Nox)", "assay": "Nox activity in synaptosomes by NADPH-dependent oxygen consumption (oximetry)", "type": "biochemical, mouse", "experimental": "Synaptosomal preparations. […] Mice were euthanized by exposure to a lethal dose of inhaled halothane, followed by cervical dislocation. Brains were rapidly removed, cortices dissected and homogenized in 10 volumes of ice-cold isolation buffer (0.32M sucrose, 1 mM EDTA, 10 mM Tris-HCl buffer, pH 7.4, 10 mM glucose). The homogenate was centrifuged at 3100 rpm for 3 min at 4° C., and the supernatant collected, and the pellet was re-homogenized in half the volume of isolation buffer and centrifuged again. Synaptosomal were then isolated as described (see reference 30, below) modified as follows, the pooled supernatants were mixed with PERCOLL™ (Sigma, St. Louis, Mo.) to a final concentration of 15%, and then layered onto a step gradient of 23% and 40% PERCOLL™, and centrifuged at 16,000 rpm for 5 minutes at 4° C. The uppermost band was extracted, rinsed in isolation buffer, centrifuged and resuspended in synaptosomal buffer (120 mM NaCl, 4.7 mM KCl, 2.2 mM CaCl2, 1.2 mM MgCl2, 25 mM HEPES, 1.2 mM MgSO4, 1.2 mM KH2PO4, 10 mM glucose).\nOxygen consumption studies (oximetry). O2 consumption studies on synaptosomes are carried out. […] Studies were carried out to optimize the concentration of synaptosomal protein required, and to confirm stability and viability of synaptosomes and their mitochondria for up to 6 h."}, "PV-interneurons": {"system": "PV-interneurons", "assay": "parvalbumin and GAD67 immunoreactivity in PV-interneurons in primary neuronal cultures", "settings": "co-exposure with ketamine 24 h; muscimol 10 μM, C3, apocynin 0.5 mM"}, "[2]": {"system": "pyramidal layer of CA1 in the aged hippocampus", "assay": "in vivo superoxide production in CA1 of the aged hippocampus (DHE confocal imaging)", "design": "species or system mouse", "settings": "old mice; C3 by oral administration; apocynin", "experimental": "Analysis of superoxide and/or hydrogen peroxide production by confocal imaging of in vivo dihydroethidium (DHE) oxidation. Mice will be injected intraperitoneally (i.p.) with dihydroethidium. Briefly, two serial i.p. injections of freshly prepared dihydroethidium (27 mg/kg) are given at 30 minute intervals. Eighteen hours later, mice are anesthetized with inhaled halothane, and are perfused intracardially with cold saline followed by 4% paraformaldehyde in PBS. Brains are removed and post-fixed in 2% paraformaldehyde for >24 h. Following fixation, brains are cut into 50 μm coronal sections and co-labeled with the appropriate primary and secondary antibodies for fluorescence visualization. […] First, an image is taken in the fluorescence channel of the ICC-fluorophor and then the channel is switched to image fluorescence from DHE oxidation. […] Using the image pairs for each field and MetaMorph software, an analyst blind to the group circles the outline of each ICC-labeled cell and then switches to the DHE oxidation image. The average fluorescence intensity for each cell of interest is logged, and values averaged to determine the mean fluorescence/cell."}, "[3]": {"system": "primary neuronal cultures", "assay": "DHE oxidation (superoxide and/or hydrogen peroxide production) in primary neuronal cultures exposed to ketamine", "type": "cell-based, mouse"}, "[4]": {"system": "synaptosomal mitochondria", "assay": "respiration of synaptosomal mitochondria (oximetry)", "settings": "apocynin 0-200 μM in synaptosomes"}, "[5]": {"settings": "apocynin 5 mg/kg/day 1 week in drinking water, C3 1.0 mg/kg/day one month by mini-pumps"}},
  "note": "“Also recorded” adds a separate entry of the source.",
  "data": [
    {"compound": "COc1cc(C(C)=O)ccc1O", "note": "[apocynin, 4-hydroxy-3-methoxyacetophenone]", "values": [
      {"measurement": "effect on ketamine-induced increase in oxidized DHE in vivo", "setting": "[1]; [5]", "value": "prevented"},
      {"measurement": "effect on ketamine-mediated loss of parvalbumin immunoreactivity in PV-interneurons in vivo", "setting": "[1]; [5]", "value": "completely prevented"},
      {"measurement": "effect on ketamine-mediated decrease in parvalbumin and GAD67 immunoreactivity in PFC", "setting": "[1]; apocynin in the drinking water", "value": "prevented"},
      {"measurement": "block of NADPH-induced O2 consumption", "setting": "NADPH oxidase (Nox); 200 μM apocynin, synaptosomes, 5 mM NADPH", "value": "> 90", "unit": "%"},
      {"measurement": "effect on increased Nox activity in synaptosomes from ketamine treated animals", "setting": "NADPH oxidase (Nox); apocynin added in vitro", "value": "inhibited"},
      {"measurement": "effect on ketamine-mediated loss of parvalbumin and GAD67 immunoreactivity in PV-interneurons", "setting": "PV-interneurons", "value": "prevented; also recorded: attenuated"},
      {"measurement": "effect on elevated levels of superoxide in the pyramidal layer of CA1 in the aged hippocampus", "setting": "[2]", "value": "prevented"},
      {"measurement": "effect on ketamine-mediated increase in oxidized DHE", "setting": "[3]; co-exposure with ketamine 0.5 μM 24 h, muscimol 10 μM, C3 20 μM, apocynin 0.5 mM", "value": "significantly reduced"},
      {"measurement": "effect on ketamine-mediated increase in ROS / free radical production (DHE fluorescence)", "setting": "[3]; ketamine with 1 μM C3 or 500 μM apocynin for 24 h", "value": "prevented"},
      {"measurement": "mitochondrial respiration", "setting": "[4]", "value": "did not affect"}
    ]}
  ]
}
